Results on 19 molecules are retold here after ChEMBL document CHEMBL1129317, “Novel selective and partial agonists of 5-HT3 receptors. Part 1. Synthesis and biological evaluation of piperazinopyrrolothienopyrazines” (J Med Chem, 1996).

Assay [1] concerns the target 5-hydroxytryptamine receptor 1D (Sus scrofa, UniProt P79400). In words: Binding affinity for 5-hydroxytryptamine 1D receptor.
The target in assay [2] is T1, Serotonin 3 (5-HT3) receptor (Rattus norvegicus, UniProt P35563+Q9JJ16).
T1 sequence (P35563 whole entry): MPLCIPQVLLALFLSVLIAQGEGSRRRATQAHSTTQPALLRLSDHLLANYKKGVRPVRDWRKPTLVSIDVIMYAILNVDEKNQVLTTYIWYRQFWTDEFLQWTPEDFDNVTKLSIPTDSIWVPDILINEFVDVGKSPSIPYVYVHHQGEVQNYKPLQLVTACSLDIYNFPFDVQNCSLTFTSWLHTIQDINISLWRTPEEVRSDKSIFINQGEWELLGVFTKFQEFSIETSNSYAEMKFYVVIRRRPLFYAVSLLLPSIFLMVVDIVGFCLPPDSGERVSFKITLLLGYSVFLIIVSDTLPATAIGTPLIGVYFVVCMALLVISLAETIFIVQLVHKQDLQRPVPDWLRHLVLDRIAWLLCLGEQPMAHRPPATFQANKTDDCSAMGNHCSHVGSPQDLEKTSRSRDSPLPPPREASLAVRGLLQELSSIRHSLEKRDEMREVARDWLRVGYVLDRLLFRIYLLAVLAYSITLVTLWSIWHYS
T1 sequence (Q9JJ16 whole entry): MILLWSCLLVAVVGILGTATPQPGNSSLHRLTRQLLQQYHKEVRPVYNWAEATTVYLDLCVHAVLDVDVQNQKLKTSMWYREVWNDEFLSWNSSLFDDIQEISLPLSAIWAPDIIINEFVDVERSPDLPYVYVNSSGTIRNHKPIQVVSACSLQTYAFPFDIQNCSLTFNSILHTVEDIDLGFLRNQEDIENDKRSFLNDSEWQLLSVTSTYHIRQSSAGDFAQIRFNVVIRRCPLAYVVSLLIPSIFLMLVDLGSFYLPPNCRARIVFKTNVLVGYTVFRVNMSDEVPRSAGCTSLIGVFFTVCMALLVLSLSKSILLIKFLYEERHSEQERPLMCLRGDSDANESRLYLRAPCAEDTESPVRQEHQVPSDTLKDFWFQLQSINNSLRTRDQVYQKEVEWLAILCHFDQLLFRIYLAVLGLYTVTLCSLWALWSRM
In words: Binding affinity towards 5-hydroxytryptamine 3 receptor. Type of assay: protein-complex assay.

Assay [3] deals with 5-hydroxytryptamine receptor 1B (Rattus norvegicus, UniProt P28564). The experiment in a line: Binding affinity for 5-hydroxytryptamine 1B receptor.
5-hydroxytryptamine receptor 1B, sequence (P28564 whole entry): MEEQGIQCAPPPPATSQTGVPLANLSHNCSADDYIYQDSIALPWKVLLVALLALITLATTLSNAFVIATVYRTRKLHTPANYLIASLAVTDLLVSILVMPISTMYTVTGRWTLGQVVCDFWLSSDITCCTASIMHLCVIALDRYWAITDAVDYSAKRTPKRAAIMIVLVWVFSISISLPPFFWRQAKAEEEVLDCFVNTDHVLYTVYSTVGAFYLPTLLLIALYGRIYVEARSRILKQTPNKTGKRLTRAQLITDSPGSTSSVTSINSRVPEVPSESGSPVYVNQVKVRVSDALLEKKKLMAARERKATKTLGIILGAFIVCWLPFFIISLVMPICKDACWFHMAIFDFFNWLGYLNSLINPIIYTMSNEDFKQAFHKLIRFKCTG
The target of assay [4] is 5-hydroxytryptamine receptor 2A (Bos taurus, UniProt Q75Z89). The experiment in a line: Binding affinity towards 5-hydroxytryptamine 2A receptor.
5-hydroxytryptamine receptor 2A, sequence (Q75Z89 whole entry): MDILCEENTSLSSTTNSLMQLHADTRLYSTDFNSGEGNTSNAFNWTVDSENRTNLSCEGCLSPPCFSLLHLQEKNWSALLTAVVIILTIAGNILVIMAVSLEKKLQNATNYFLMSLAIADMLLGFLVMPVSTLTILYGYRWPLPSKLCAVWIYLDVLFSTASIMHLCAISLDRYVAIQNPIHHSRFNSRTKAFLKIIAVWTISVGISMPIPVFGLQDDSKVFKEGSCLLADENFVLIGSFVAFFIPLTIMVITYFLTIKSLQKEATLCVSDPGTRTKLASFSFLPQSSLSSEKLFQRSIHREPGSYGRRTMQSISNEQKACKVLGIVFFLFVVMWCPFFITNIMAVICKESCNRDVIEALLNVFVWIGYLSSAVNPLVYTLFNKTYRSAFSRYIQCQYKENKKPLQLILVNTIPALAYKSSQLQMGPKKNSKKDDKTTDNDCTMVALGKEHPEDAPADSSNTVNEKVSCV
For assay [5], the target named is T2, 5-hydroxytryptamine receptor 1A (Homo sapiens, UniProt P08908).
T2 sequence (P08908 whole entry): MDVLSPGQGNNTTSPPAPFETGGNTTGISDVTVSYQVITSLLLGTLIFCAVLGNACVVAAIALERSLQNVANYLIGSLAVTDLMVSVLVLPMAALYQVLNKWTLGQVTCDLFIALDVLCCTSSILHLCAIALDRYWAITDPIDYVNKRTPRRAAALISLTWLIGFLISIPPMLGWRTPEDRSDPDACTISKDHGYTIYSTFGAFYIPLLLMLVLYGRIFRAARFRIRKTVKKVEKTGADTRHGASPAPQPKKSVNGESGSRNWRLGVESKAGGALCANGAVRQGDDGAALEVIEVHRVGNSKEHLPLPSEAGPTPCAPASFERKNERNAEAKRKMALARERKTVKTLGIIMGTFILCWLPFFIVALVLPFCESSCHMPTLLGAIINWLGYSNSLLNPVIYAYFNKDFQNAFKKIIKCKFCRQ
In words: Binding affinity for 5-hydroxytryptamine 1A receptor.

Assay [6] deals with T3, 5-hydroxytryptamine receptor 2C (Homo sapiens, UniProt P28335).
T3 sequence (P28335 whole entry): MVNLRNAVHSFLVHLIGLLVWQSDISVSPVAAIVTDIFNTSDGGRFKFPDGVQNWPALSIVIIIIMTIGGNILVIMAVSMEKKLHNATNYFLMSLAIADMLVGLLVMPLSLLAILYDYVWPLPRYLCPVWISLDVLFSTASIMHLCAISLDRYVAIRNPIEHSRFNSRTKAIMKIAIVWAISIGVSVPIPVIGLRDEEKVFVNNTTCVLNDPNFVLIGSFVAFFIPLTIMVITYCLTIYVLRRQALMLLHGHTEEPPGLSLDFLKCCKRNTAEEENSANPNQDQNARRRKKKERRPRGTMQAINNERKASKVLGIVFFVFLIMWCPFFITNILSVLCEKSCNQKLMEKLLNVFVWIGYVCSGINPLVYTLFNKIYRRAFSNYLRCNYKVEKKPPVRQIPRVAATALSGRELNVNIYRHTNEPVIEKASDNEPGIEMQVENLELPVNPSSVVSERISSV
In words: Binding affinity towards 5-hydroxytryptamine 2C receptor.

Assay [7] addresses T4, Serotonin 3 (5-HT3) receptor (Rattus norvegicus) (UniProt P35563+Q9JJ16). In words: Agonistic activity of compound towards 5-hydroxytryptamine 3 receptor in Von Bezold-Jarisch Reflex in rats at 100 (ug/kg), evaluated as change in heart rate. Type of assay: functional.
Assay [8] deals with T4, Serotonin 3 (5-HT3) receptor (Rattus norvegicus). The experiment in a line: Antagonistic activity of compound towards 5-hydroxytryptamine 3 receptor in Von Bezold-Jarisch Reflex in rats at 100(ug/kg), evaluated as percent inhibition of bradycardia. The class given is functional.
Assay [9] concerns NG108-15. In words: In vitro effective concentration against [14C]guanidinium uptake into NG 108-15 cells. To be noted: Murinae. The class given is functional, cell-based.
For assay [10], the target named is T4, Serotonin 3 (5-HT3) receptor (Rattus norvegicus). In words: 5-Hydroxy tryptamine 3 receptor showing agonist activity (in vivo) in Von Bezold-Jarisch Reflex in rats at 120 (ug/kg), evaluated as change in heart rate. Type of assay: functional, organism-based.
Assay [11] has the same target. The experiment in a line: Agonistic activity of compound towards 5-hydroxytryptamine 3 receptor in Von Bezold-Jarisch Reflex in rats at 60 (ug/kg), evaluated as change in heart rate. Type of assay: functional.
Assay [12] shares this target. The experiment in a line: Antagonistic activity of compound towards 5-hydroxytryptamine 3 receptor in Von Bezold-Jarisch reflex in rats at 60(ug/kg), evaluated as percent inhibition of bradycardia. Type of assay: functional.
For assay [13] the target is unchanged. In words: Antagonistic activity of compound towards 5-hydroxytryptamine 3 receptor in Von Bezold-Jarisch Reflex in rats at 60 (ug/kg), evaluated as percent inhibition of bradycardia. Type of assay: functional.

Bounds are passed on as bounds.

5-hydroxytryptamine receptor 1D, sequence (P79400 whole entry): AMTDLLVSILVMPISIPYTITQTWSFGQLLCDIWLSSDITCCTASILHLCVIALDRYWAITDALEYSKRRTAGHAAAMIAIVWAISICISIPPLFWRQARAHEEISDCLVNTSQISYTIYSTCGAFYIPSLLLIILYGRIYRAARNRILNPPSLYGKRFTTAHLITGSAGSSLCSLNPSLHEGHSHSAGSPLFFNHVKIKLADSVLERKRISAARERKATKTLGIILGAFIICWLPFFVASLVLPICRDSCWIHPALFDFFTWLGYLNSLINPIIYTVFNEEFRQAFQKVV

The term IC50 denotes the concentration that gives 50% inhibition. High values mean weaker potency in that assay, low ones greater potency in that assay. As for `c1cc2c(N3CCOCC3)nc3ccsc3n2c1`, the IC50 in assay [1] is 93.3 µM; in [2], 20.9 µM; in assay [3], above 100 µM; in [4], 39.8 µM; in assay [5], 32.4 µM; in assay [6] it was 41.7 µM.

In the case of `CCOC(=O)CN1CCN(c2nc3ccsc3n3cccc23)CC1`, the IC50 was 100 µM in assay [1]; 4.07 µM in assay [2]; 0.676 µM in assay [3]; 70.8 µM in assay [4]; 0.257 µM in assay [5]; 61.7 µM in [6].

As to `FC(F)(F)c1cccc(N2CCN(c3nc4scc(-c5ccccc5)c4n4cccc34)CC2)c1`, the IC50 in assay [1] was 35.5 µM; in assay [2], 2.95 µM; in assay [3], 19.1 µM; in assay [4], 87.1 µM; in assay [5], 17.8 µM; in assay [6] it was 1.07 µM.

On to `c1ccc(CN2CCN(c3nc4cc(-c5ccccc5)sc4n4cccc34)CC2)cc1`, for which the IC50 in [1] is above 100 µM; in assay [2], 589 µM; in assay [3] it was above 100 µM; in [4], 339 µM; in assay [5], above 100 µM; in assay [6] it was 468 µM.

For `Clc1ccc(N2CCN(c3nc4ccsc4n4cccc34)CC2)cc1`, the IC50 is above 100 µM in [1]; 245 µM in assay [2]; 302 µM in assay [3]; 372 µM in assay [4]; above 100 µM in [5]; 102 µM in assay [6].

Take `Clc1ccc(CN2CCN(c3nc4ccsc4n4cccc34)CC2)c(Cl)c1`: the IC50 was 3.09 µM in [1]; 0.0166 µM in assay [2]; 4.68 µM in [3]; 7.41 µM in assay [4]; 0.661 µM in assay [5]; 0.851 µM in [6].

As to `C(=C\c1ccccc1)/CN1CCN(c2nc3ccsc3n3cccc23)CC1`, the IC50 in assay [1] is 105 µM; in [2], 0.2 µM; in assay [3], 0.646 µM; in [4], 0.851 µM; in assay [5], 0.0832 µM; in assay [6], 0.708 µM.

For `O=C(CN1CCN(c2nc3ccsc3n3cccc23)CC1)N1CCCC1`, the IC50 in assay [1] is 251 µM; in [2], 1.48 µM; in assay [3], above 100 µM; in assay [4], 14.5 µM; in assay [5] it was 0.407 µM; in assay [6], 8.32 µM.

The EC50 is the concentration needed to bring the measured effect to its halfway point. High values mean weaker potency, low ones greater potency. Consider `c1ccc(CN2CCN(c3nc4sccc4n4cccc34)CC2)cc1`, for which the IC50 was 93.3 µM in assay [1]; 0.00457 µM in assay [2]; 91.2 µM in assay [3]; 19.5 µM in assay [4]; 5.89 µM in assay [5]; 3.72 µM in [6]. Moreover, the Change was found to be 48% in [7] and 67% in assay [8]. In [9], this molecule registered an EC50 of 30 nM.

For `c1cc2c(N3CCNCC3)nc3ccsc3n2c1`, the IC50 is 0.603 µM in assay [1]; 0.012 µM in assay [2]; 0.0138 µM in [3]; 2.63 µM in assay [4]; 0.0589 µM in assay [5]; 0.0347 µM in assay [6]. For the same molecule, the Change in assay [10] came out at 0%; in [11] it was 35%; in assay [12] it was 68%. This molecule came in with an EC50 in [9] of 80 nM.

`Fc1ccc(CN2CCN(c3nc4sccc4n4cccc34)CC2)cc1`: the IC50 in assay [1] is above 100 µM; in assay [2], 0.00117 µM; in assay [3], 1580 µM; in assay [4], 38 µM; in assay [5], 14.5 µM. Also, the Change in assay [7] turned out to be 25%; in assay [13], 34%; in assay [11], 0%. Besides, it took 5 nM to reach a half-maximal effect in [9] (EC50).

Turning to `FC(F)(F)c1cccc(N2CCN(c3nc4cc(-c5ccccc5)sc4n4cccc34)CC2)c1`, the IC50 was above 100 µM in assay [1]; above 100 µM in [2]; 1380 µM in assay [3]; above 100 µM in assay [4]; above 100 µM in [5]; 214 µM in assay [6].

As for `Clc1ccc(C(c2ccccc2)N2CCN(c3nc4ccsc4n4cccc34)CC2)cc1` (centres undefined), the IC50 in [1] was above 100 µM; in assay [2] it was 1.38 µM; in assay [3], above 100 µM; in assay [4] it was above 100 µM; in assay [5], 204 µM; in [6] it was 282 µM.

Take `Clc1ccc(CN2CCN(c3nc4sccc4n4cccc34)CC2)cc1Cl`: the IC50 was 257 µM in [1]; 1.17 µM in assay [2]; 33.9 µM in assay [3]; 191 µM in assay [4]; 10.2 µM in assay [5]; 8.71 µM in [6].

`C=CCN1CCN(c2nc3ccsc3n3cccc23)CC1`: the IC50 in [1] was 0.38 µM; in [2], 0.00263 µM; in [3], 0.575 µM; in assay [4] it was 0.851 µM; in [5], 0.12 µM; in assay [6], 0.17 µM.

Consider `Cc1sc2c(nc(N3CCN(Cc4ccccc4)CC3)c3cccn32)c1C`, for which the IC50 in [1] is 525 µM; in assay [2], 3.63 µM; in assay [3] it was above 100 µM; in assay [4], 174 µM; in assay [5] it was 126 µM; in assay [6] it was 155 µM.

Turning to `CCCN1CCN(c2nc3ccsc3n3cccc23)CC1`, the IC50 in assay [1] was 0.135 µM; in assay [2], 0.0603 µM; in assay [3], 1.1 µM; in assay [4] it was 1.07 µM; in [5] it was 0.0933 µM; in assay [6], 0.347 µM.

As for `FC(F)(F)c1cccc(N2CCN(c3nc4sc(-c5ccccc5)cc4n4cccc34)CC2)c1`, the 50% inhibitory concentration (IC50) in assay [1] was above 100 µM; in assay [2] it was 1740 µM; in [3], above 100 µM; in [4], above 100 µM; in [5], above 100 µM; in assay [6], 23.4 µM.

As to `Fc1ccc(N2CCN(c3nc4ccsc4n4cccc34)CC2)cc1`, the half-maximal inhibitory concentration (IC50) in [1] was 275 µM; in assay [2], 97.7 µM; in assay [3], 70.8 µM; in [4], 447 µM; in assay [5] it was 43.7 µM; in assay [6] it was 72.4 µM.
